Test results as given in US6416964B2, “Methods of identifying modulators of kinases responsive to stress” (Merck & Co., Inc., priority 1998, dated 2002).

Experiments:
[1] = tested on: 34 kDa Mst kinase (Mst 1 cleavage); test: 34 kDa Mst kinase activation / Mst 1 cleavage in purified osteoclasts; assay type: cell-based; settings: for activation of the 34 kDa Mst kinase: purified osteoclasts
[2] = tested on: 50 kDa Kinase; test: in-gel kinase assay (myelin basic protein substrate) in purified preosteoclasts; assay type: cell-based, mouse
Description: (§1) The following procedure is a modification of Wesolowski et al. (1995, Exp. Cell Res. 219: 679-686), which is incorporated by reference herein in its entirety. Cocultures are made by adding marrow cells from 6-week old mouse tibia and femur onto a monolayer of MB 1.8 mouse calvaria osteoblasts that are preseeded into culture dishes in α-MEM (minimal essential medium) containing fetal calf serum (10%) and 1,25 Dihydroxy Vitamin D3 (10 nM). Cocultures are maintained, with media changes every 48 hours, for a period of 6 days. Non-osteoclastic cells are removed by treatment of cocultures with Collagenase I (1 mg/ml in Phosphate Buffered Saline [PBS]). Collagenase-sensitive cells are removed by washing with PBS. Preosteoclasts are lifted from the dish using EDTA (0.2 g/L in PBS) and transferred into culture dishes and maintained in α-MEM containing fetal calf serum (10%), 1,25 Dihydroxy Vitamin D3 (10 nM), and m-Colony Stimulating Factor (5 ng/ml). Osteoclast-like cells (collagenase-insensitive, EDTA-insensitive cells) that remain attached to the original coculture dishes are maintained in α-MEM containing fetal calf serum (10%), 1,25 Dihydroxy Vitamin D3 (10 nM), and m-Colony Stimulating Factor (5 ng/ml).
(§2) Preosteoclasts are generated and purified as described in Example 1. […] Untreated cells are included in the analyses and act as a negative control for kinase activities. Cells are then harvested and lysed in a HEPES (N-(2-hydroxyethyl)piperazine-N′-(2-ethansulfonic acid) or Tris buffer containing the following: β-glycerophosphate (50 mM); Na3VO4 (1 mM); NaF (1 mM); Microcystin LR (1 μM); leupeptin (10 μg/ml); aprotinin (10 μg/ml); phenylmethyl sulfonylfluoride (1 mM). Protein concentrations are determined for each lysate and 5-20 μg are loaded into each lane of a SDS-PAGE (sodium dodecyl sulfate-polyacrylamide gel electrophoresis) gel containing Myelin Basic Protein, or another kinase substrate, which has been polymerized into the gel at a concentration between 50-400 μg/ml. Molecular weight standards are also loaded into one or more lanes of the gels. In-gel kinase assays are run according to a standard procedure based on Kameshita and Fujisawa, 1989 (Anal. Biochem. 183:139-143) and of Gotoh et al., 1990 (Eur. J. Biochem. 193: 661-669), both references being incorporated by reference herein in their entirety. The proteins are electrophoresed in the above gels. The gels are then successively soaked in 50 mM HEPES, pH 7.6; 5 mM 2-mercaptoethanol and each of the following (for each wash): (a) 20% isopropanol; (b) no additions; (c) urea (6 M); (d) Urea (3 M); (e) Urea (0.75 M); and Tween 20 (0.05% vol:vol). Kinase reactions are then run by first soaking the gels in 20 mM HEPES, pH 7.6; 20 mM MgCl2; 2 mM DTT and then in the same buffer containing […] (non-radioactive) with ca. 1000 cpm/pmol ^32P-γ-ATP. The gels are then washed six times with 5% trichloroacetic acid and 1% pyrophosphate. The gels are then stained with Coomassie brilliant blue dye (0.125%) in 50% methanol, 10% acetic acid; destained with 30% methanol, 10% acetic acid; soaked in 2% glycerol; and dried using a gel dryer. The gels are then exposed to autoradiography film for times ranging from several hours to weeks. The bands observed in the autoradipgraphs representing the gels reflect kinase activities. […] The band intensities on the autoradiography film are quantitated by densitometry and comparisons between bands from untreated controls and bands from echistatin-treated cells provide the basis for the analyses.

[3] = tested on: approximately 60 kDa kinase doublet (Mst 1, Mst 2); test: as above; assay type: cell-based, mouse
Description: as §1, §2

[4] = tested on: Mst 1, Mst 2; test: in-gel kinase assay in HEK 293 transfectants expressing human αvβ3 integrin; assay type: cell-based; settings: αvβ3 integrin transfected HEK 293 cells
[5] = tested on: 50 kDa Kinase; test: as above; assay type: cell-based; settings: αvβ3 integrin transfected HEK 293 cells
[6] = tested on: stress reponsive kinases; test: activation of stress responsive kinases by compounds that modify osteoclast function; assay type: cell-based
Description: as §2

[7] = tested on: 34 kDa Kinase; test: in-gel kinase assay in osteoclast-like cells; assay type: cell-based, mouse
Description: as §1, §2
A similar approach is also used to assay for the 34 kDa Kinase and the 130 kDa Kinase.
Osteoclast-like cells are generated as described in Example 1. The compound or compounds to be evaluated are added at the desired concentration to the osteoclast-like cells for any of various times (1 minute to several hours). Cell lysates are made using standard techniques and in-gel kinase assays are performed as described in Example 2.

[8] = tested on: Mst 1, Mst 2; test: in-gel kinase assay in Parental HEK 293 cells; assay type: cell-based, human; settings: 10-60 min (FIG. 5D-5F), Ala^24 echistatin 30 nM
[9] = tested on: 50 kDa Kinase; test: in-gel kinase assay in Parental HEK 293 cells; assay type: cell-based, human; settings: 10-60 min (FIG. 5D-5F), Ala^24 echistatin 30 nM
[10] = osteoclast like cells, 30 μM and 100 μM, about 17 hours (FIG. 6)
[11] = osteoclast-like cells, 100 μM and 300 μM (FIG. 9)
[12] = dose response, standard (overnight) film exposure (FIG. 2A)

O=P(O)(O)C(Cl)(Cl)P(=O)(O)O [Clodronate, 1,1-dichloromethylene-1,1-diphosphonic acid]
activation of the 34 kDa Mst kinase [1]: also induce

O=C(NC[C@H](NS(=O)(=O)c1ccccc1)C(=O)O)c1ccc(OCCNC2=NCCCN2)cc1 [RGD II, (2-[N-(3,4,5,6-tetrahydropyrimidin-2-yl)amino]ethyloxyphen-4-yl)carbonyl-2(S)-phenylsulfonamido-beta-alanine]
activation of 50 kDa kinase ([2]; 10 μM (FIG. 4B)): effective in activating | activation of Mst 1, Mst 2 ([3]; 10 μM (FIG. 4B)): effective in activating | change in Mst 1 (ca. 59 kDa), Mst 2 (ca. 60 kDa) activities ([4]; 10 μM, 0-60 min (FIG. 5B)): increase | change in 50 kDa Kinase activity ([5]; 10 μM, 0-60 min (FIG. 5B)): increase | activation of stress responsive kinases [6]: activate

Cl.Cl.Cl.O=C(O)C[C@H](Cc1cnc2ccccc2c1)NC(=O)CN1CC[C@H](NCc2ccc3c(n2)NCCC3)C1=O [RGD I]
activation of 50 kDa kinase ([2]; 10 nM (FIG. 4B)): effective in activating | activation of Mst 1, Mst 2 ([3]; 10 nM (FIG. 4B)): effective in activating | activation of stress responsive kinases [6]: activate

NCCCC(O)(P(=O)(O)O)P(=O)(O)O [alendronate, 4-amino-1-hydroxybutylidene-1,1-bisphosphonic acid monosodium trihydrate]
activation of 34 kDa Kinase ([7]; osteoclast like cells, 30 μM (FIG. 7, lane 2)): activation | activation of 34 kDa Kinase [7, 10]: activation | activation of 34 kDa Kinase ([7]; osteoclast-like cells, 10 μM and 30 μM, about 17 hours (FIG. 9)): activation | activation of 34 kDa Kinase immunoprecipitated by anti-Mst and anti-Krs antibody cocktail ([7]; osteoclast-like cells, 30 μM (FIG. 10, lane 3)): activated | activation of 34 kDa Kinase when coincubated with caspase inhibitor Z—VAD—FMK ([7]; osteoclast-like cells, in the presence of Z—VAD—FMK (FIG. 9, lane 8)): does not activate | activation of the 34 kDa Mst kinase [1]: induce activation | activation of stress responsive kinases [6]: activate

CC(O)(P(=O)(O)O)P(=O)(O)O [etidronate disodium, 1-hydroxyethane-1,1-diphosphonic acid]
activation of 34 kDa Kinase [7, 10]: failed to activate | activation of 34 kDa Kinase [7, 11]: failed to activate | activation of the 34 kDa Mst kinase [1]: to a lesser extent

CC(C)=CCCC(C)=CCCC(C)=CCO [farnesol]
blocking of lovastatin effects (34 kDa Mst 1 activity) [1]: not | reduction of alendronate- and risedronate-induced Mst 1 cleavage [1]: about 50%

CC(C)=CCC/C(C)=C/CC/C(C)=C/CC/C(C)=C/CO [geranylgeraniol]
effect on activation of 34 kDa Kinase by 30 μM alendronate monosodium trihydrate ([7]; osteoclast like cells, 10 μM geranyl geraniol (FIG. 7, lane 3)): negates this activation | blocking of alendronate- and risedronate-induced Mst 1 cleavage [1]: essentially completely blocked | blocking of clodronate effects (34 kDa Mst kinase) [1]: not blocked | blocking of lovastatin effects (34 kDa Mst 1 activity) [1]: blocked

CC[C@H](C)C(=O)O[C@H]1C[C@@H](C)C=C2C=C[C@H](C)[C@H](CC[C@@H]3C[C@@H](O)CC(=O)O3)[C@H]21 [lovastatin]
34 kDa Mst 1 activity ([1]; treatment for 17-24 hours): increases

C[C@@]1(O)CCOC(=O)C1 [mevalonic acid lactone]
reduction of alendronate- and risedronate-induced Mst 1 cleavage [1]: about 50%

C[C@@](O)(CCO)CC(=O)O [mevalonic acid]
blocking of lovastatin effects (34 kDa Mst 1 activity) [1]: blocked

NCCC(O)(P(=O)(O)O)P(=O)(O)O [pamidronate, 3-amino-1-hydroxypropylidene-1,1-bisphosphonic acid]
activation of the 34 kDa Mst kinase [1]: induce activation

O=P(O)(O)C(O)(Cc1cccnc1)P(=O)(O)O [risedronate, 1-hydroxy-2-(3-pyridinyl)-ethylidene-1,1-bisphosphonic acid]
activation of the 34 kDa Mst kinase [1]: induce activation

O=P(O)(O)C(Sc1ccc(Cl)cc1)P(=O)(O)O [tiludronate disodium, (4-chlorophenyl)thiomethane-1,1-disphosphonic acid]
activation of 34 kDa Kinase [7, 10]: failed to activate | activation of 34 kDa Kinase [7, 11]: failed to activate

calcitonin
activation of stress responsive kinases [6]: activate

echistatin
activation of kinase of approximately 50 kDa ([2]; 30 nM, time course (FIG. 1B)): also activated | activation of the approximately 50 kDa kinase ([2]; 30 and 100 nM doses, extended (about 3-4 days) exposure (FIG. 2B)): activation | activation of approximately 60 kDa kinase doublet ([3]; 30 nM, time course (FIG. 1B)): strongly activated | concentration of maximal activities of approximately 60 kDa kinase doublet [3, 12]: about 30 nM | concentrations showing activation of approximately 60 kDa kinase doublet [3, 12]: ≥ 10 nM | treatment time of maximal kinase activity ([3]; timecourse (FIG. 4A)): 20 min | change in Mst 1 (ca. 59 kDa), Mst 2 (ca. 60 kDa) activities ([4]; 30 nM, 0-60 min (FIG. 5A, 5C)): increase | change in 50 kDa Kinase activity ([5]; 30 nM, 0-60 min (FIG. 5A, 5C)): increase | effect on activities of Mst 1, Mst 2 [8]: no significant effect | effect on activity of 50 kDa Kinase [9]: no significant effect | activation of stress responsive kinases [6]: activate
